Patent US20230381157A1, “RIFABUTIN FOR THE TREATMENT OF ACINETOBACTER BAUMANNII” (University of Southern California, priority 2018, published 2023)
Where two headings read alike, the source gives them in different places.

How the values were obtained:
LAC-4 = assay type: in vivo, Galleria mellonella; settings: G. mellonella
A. baumannii = assay type: cell-based, Acinetobacter baumannii
Acinetobacter baumannii = assay: Galleria mellonella infection model; assay type: in vivo
[1] = test system: A. baumannii AB5075 transposon disruption mutants; assay: microbe, parasite or virus in culture; assay type: cell-based, Acinetobacter baumannii

CO[C@H]1/C=C/O[C@@]2(C)Oc3c(C)c(O)c4c(c3C2=O)C2=NC3(CCN(CC(C)C)CC3)NC2=C(NC(=O)/C(C)=C\C=C\[C@H](C)[C@H](O)[C@@H](C)[C@@H](O)[C@@H](C)[C@H](OC(C)=O)[C@@H]1C)C4=O [rifabutin]
efficacy RBT vs RIF (LAC-4): no difference in efficacy
Mutation Frequency (A. baumannii; A. baumannii ABNIH1, MHII): 8.85E−09
Mutation Frequency (A. baumannii; A. baumannii ABNIH1, TSA): 5.95E−09
Mutation Frequency (A. baumannii; A. baumannii ATCC17978, MHII): 5.72E−09
Mutation Frequency (A. baumannii; A. baumannii ATCC17978, TSA): 8.49E−10
Mutation Frequency (A. baumannii; A. baumannii HUMC1, MHII): 2.20E−09
Mutation Frequency (A. baumannii; A. baumannii HUMC1, TSA): 1.28E−08
Mutation Frequency (A. baumannii; A. baumannii LAC-4, MHII): 1.29E−08
Mutation Frequency (A. baumannii; A. baumannii LAC-4, TSA): 7.41E−09
protection, multiple doses (Acinetobacter baumannii; G. mellonella infection model): protective at significantly lower doses as compared to RIF
lowest efficacious dose (efficacious at doses as low as) (Acinetobacter baumannii; Galleria mellonella, dose-response): 0.1 mg/kg
Rifabutin MIC ([1]; AB00188, disrupted gene aroP, RPMI, listed as RBT): 0.05 µg/mL
Rifabutin MIC ([1]; AB00190, disrupted gene aroP, RPMI, listed as RBT): 0.05 µg/mL
Rifabutin MIC ([1]; AB00215, disrupted gene tryP, RPMI, listed as RBT): 0.05 µg/mL
Rifabutin MIC ([1]; AB00216, disrupted gene tryP, RPMI, listed as RBT): 0.05 µg/mL
Rifabutin MIC ([1]; AB01188, ABUW_0449 (hypothetical protein), MHII): 1.56 µg/mL
Rifabutin MIC ([1]; AB01188, ABUW_0449 (hypothetical protein), RPMI): 0.05 µg/mL
Rifabutin MIC ([1]; AB01192, ABUW_0449, MHII): 1.56 µg/mL
Rifabutin MIC ([1]; AB01192, ABUW_0449, RPMI): 0.05 µg/mL
Rifabutin MIC ([1]; AB01494, ABUW_0559 (putative phage-related membrane protein), MHII): 3.13 µg/mL
Rifabutin MIC ([1]; AB01494, ABUW_0559 (putative phage-related membrane protein), RPMI): 0.05 µg/mL
Rifabutin MIC ([1]; AB01495, ABUW_0559, MHII): 6.25 µg/mL
Rifabutin MIC ([1]; AB01495, ABUW_0559, RPMI): 0.05 µg/mL
Rifabutin MIC ([1]; AB02034, ABUW_0745 (hypothetical protein), MHII): 0.78 µg/mL
Rifabutin MIC ([1]; AB02034, ABUW_0745 (hypothetical protein), RPMI): 0.05 µg/mL
Rifabutin MIC ([1]; AB02035, ABUW_0745, MHII): 1.56 µg/mL
Rifabutin MIC ([1]; AB02035, ABUW_0745, RPMI): 0.05 µg/mL
Rifabutin MIC ([1]; AB02204, disrupted gene aroP, RPMI, listed as RBT): 0.05 µg/mL
Rifabutin MIC ([1]; AB02205, disrupted gene aroP, RPMI, listed as RBT): 0.05 µg/mL
Rifabutin MIC ([1]; AB02891, ABUW_1069 (NADH dehydrogenase), MHII): 3.13 µg/mL
Rifabutin MIC ([1]; AB02891, ABUW_1069 (NADH dehydrogenase), RPMI): 0.05 µg/mL
Rifabutin MIC ([1]; AB02892, ABUW_1069, MHII): 6.25 µg/mL
Rifabutin MIC ([1]; AB02892, ABUW_1069, RPMI): 0.05 µg/mL
Rifabutin MIC ([1]; AB03015, disrupted gene aroP, RPMI, listed as RBT): 0.05 µg/mL
Rifabutin MIC ([1]; AB03608, disrupted gene hisJ, RPMI, listed as RBT): 0.05 µg/mL
Rifabutin MIC ([1]; AB03612, disrupted gene hisM, RPMI, listed as RBT): 0.05 µg/mL
Rifabutin MIC ([1]; AB03616, disrupted gene hisM, RPMI, listed as RBT): 0.05 µg/mL
Rifabutin MIC ([1]; AB03618, disrupted gene hisM, RPMI, listed as RBT): 0.05 µg/mL
Rifabutin MIC ([1]; AB04576, ABUW_1741 (outer membrane protein assembly factor BamA), MHII): 1.56 µg/mL
Rifabutin MIC ([1]; AB04576, ABUW_1741 (outer membrane protein assembly factor BamA), RPMI): 0.05 µg/mL
Rifabutin MIC ([1]; AB04593, ABUW_1750 (HAD-superfamiy hydrolase), MHII): 3.13 µg/mL
Rifabutin MIC ([1]; AB04593, ABUW_1750 (HAD-superfamiy hydrolase), RPMI): 0.05 µg/mL
Rifabutin MIC ([1]; AB04594, ABUW_1750, MHII): 3.13 µg/mL
Rifabutin MIC ([1]; AB04594, ABUW_1750, RPMI): 0.05 µg/mL
Rifabutin MIC ([1]; AB04749, ABUW_1817 (putative peroxidase(alpha/beta hydrolase)), MHII): 3.13 µg/mL
Rifabutin MIC ([1]; AB04749, ABUW_1817 (putative peroxidase(alpha/beta hydrolase)), RPMI): 0.05 µg/mL
Rifabutin MIC ([1]; AB04750, ABUW_1817, MHII): 3.13 µg/mL
Rifabutin MIC ([1]; AB04750, ABUW_1817, RPMI): 0.05 µg/mL
Rifabutin MIC ([1]; AB5075-UW (parent strain), RPMI, listed as RBT): 0.05 µg/mL
Rifabutin MIC ([1]; AB05089, ABUW_1933 (NADP-dependent fatty aldehyde dehydrogenase), MHII): 1.56 µg/mL
Rifabutin MIC ([1]; AB05089, ABUW_1933 (NADP-dependent fatty aldehyde dehydrogenase), RPMI): 0.05 µg/mL
Rifabutin MIC ([1]; AB05348, ABUW_2057 (alcohol dehydrogenase), MHII): 1.56 µg/mL
Rifabutin MIC ([1]; AB05348, ABUW_2057 (alcohol dehydrogenase), RPMI): 0.05 µg/mL
Rifabutin MIC ([1]; AB05361, ABUW_2062 (phospholipase D family protein), MHII): 1.56 µg/mL
Rifabutin MIC ([1]; AB05361, ABUW_2062 (phospholipase D family protein), RPMI): 0.05 µg/mL
Rifabutin MIC ([1]; AB05362, ABUW_2062, MHII): 1.56 µg/mL
Rifabutin MIC ([1]; AB05362, ABUW_2062, RPMI): 0.05 µg/mL
Rifabutin MIC ([1]; AB05479, ABUW_2100 (LysR family transcriptional regulator), MHII): 3.13 µg/mL
Rifabutin MIC ([1]; AB05479, ABUW_2100 (LysR family transcriptional regulator), RPMI): 0.05 µg/mL
Rifabutin MIC ([1]; AB05480, ABUW_2100, MHII): 1.56 µg/mL
Rifabutin MIC ([1]; AB05480, ABUW_2100, RPMI): 0.05 µg/mL
Rifabutin MIC ([1]; AB05672, ABUW_2165, MHII): 6.25 µg/mL
Rifabutin MIC ([1]; AB05672, ABUW_2165, RPMI): 3.13 µg/mL
Rifabutin MIC ([1]; AB05673, ABUW_2165, MHII): 3.13 µg/mL
Rifabutin MIC ([1]; AB05673, ABUW_2165, RPMI): 3.13 µg/mL
Rifabutin MIC ([1]; AB05674, ABUW_2165, MHII): 3.13 µg/mL
Rifabutin MIC ([1]; AB05674, ABUW_2165, RPMI): 1.56 µg/mL
Rifabutin MIC ([1]; AB05756, ABUW_2194 (acyl-CoA dehydrogenase), MHII): 1.56 µg/mL
Rifabutin MIC ([1]; AB05756, ABUW_2194 (acyl-CoA dehydrogenase), RPMI): 0.05 µg/mL
Rifabutin MIC ([1]; AB05757, ABUW_2194, MHII): 6.25 µg/mL
Rifabutin MIC ([1]; AB05757, ABUW_2194, RPMI): 0.05 µg/mL
Rifabutin MIC ([1]; AB05837, ABUW_2228 (TonB-dependent receptor), MHII): 3.13 µg/mL
Rifabutin MIC ([1]; AB05837, ABUW_2228 (TonB-dependent receptor), RPMI): 0.05 µg/mL
Rifabutin MIC ([1]; AB05838, ABUW_2228, MHII): 3.13 µg/mL
Rifabutin MIC ([1]; AB05838, ABUW_2228, RPMI): 0.05 µg/mL
Rifabutin MIC ([1]; AB06047, ABUW_2307 (biotin synthase), MHII): 0.05 µg/mL
Rifabutin MIC ([1]; AB06047, ABUW_2307 (biotin synthase), RPMI): 0.05 µg/mL
Rifabutin MIC ([1]; AB06049, ABUW_2307, MHII): 0.05 µg/mL
Rifabutin MIC ([1]; AB06049, ABUW_2307, RPMI): 0.05 µg/mL
Rifabutin MIC ([1]; AB06076, ABUW_2318 (cytosine permease), RPMI): 0.05 µg/mL
Rifabutin MIC ([1]; AB06077, ABUW_2318, MHII): 1.56 µg/mL
Rifabutin MIC ([1]; AB06077, ABUW_2318, RPMI): 0.05 µg/mL
Rifabutin MIC ([1]; AB06089, ABUW_2322 (integrase), MHII): 3.13 µg/mL
